Test results reported in patent US7625948B2, “Ester compound and medicinal use thereof” (Japan Tobacco Inc., priority 2002, dated 2009).
Read-outs that look alike come from different tables or passages of the source.

Columns and labels:
HepG2 cells = assay: Test Example 2: inhibition of apolipoprotein B secretion from HepG2 cells, ELISA (also used for metabolites in Test Example 8); type: cell-based; conditions: Homo sapiens
How it was run: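 HepG2 cells cultured 24 h, then exposed 24 h to compounds or metabolites in medium with 0.5% DMSO. Secreted apo B in supernatant quantified by sandwich ELISA (HRP, ABTS, 405 nm) against purified human apo B standard; % inhibition vs DMSO group, IC50 derived.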

Syrian hamsters [1] = assay: Test Example 3: olive oil-loading test (inhibition of fat absorption, plasma TG); type: in vivo; conditions: Mesocricetus auratus, po, plasma TG 4 hours after olive oil, read-out: Test Example 3 Inhibition of fat absorption after olive oil-loading in Hamster Inhibition rate (%); for inhibition in vivo at 3 mg/kg: 3 mg/kg p.o.
Experimental: Syrian hamsters (9-11 weeks of age) under non-fasted conditions were used in the test. Blood was collected previously from orbital venous plexus, and a sample was suspended in 0.5% methyl cellulose (vehicle) and the suspension was forced to be administered orally to the hamsters at a dose of 0.3, 1, 3 or 10 mg/2 mL/kg. Only vehicle in the same volume was administered to the control group. Olive oil (2 mL/kg) was forced to be administered orally 30 minutes after the administration of the sample, and blood was collected from orbital venous plexus 4 hours later. Plasma was recovered from the blood, and the amount of triglyceride (TG) in the plasma was determined by automatic analyzer (Hitachi Co.). The data was expressed in terms of ΔTG(mg/dL)=the value at 4th hr minus the value before administration. Inhibition rate (%) was calculated from the data obtained on the basis of the following equation.
Inhibition rate (%)=100×(1 minus ΔTG of sample group/ΔTG of control group).

Syrian hamsters [2] = assay: as above; type: in vivo; conditions: Mesocricetus auratus, po; 100 mg/kg p.o.; plasma TG 4 hours after olive oil; read-out: Test Example 3 Inhibition of fat absorption after olive oil-loading in Hamster Inhibition rate (%)
[3] = target: T1, Microsomal triglyceride transfer protein (MTP) from bovine liver (Bos taurus, UniProt P55156); assay: Test Example 1: inhibition of interliposomal triglyceride (TG) transfer activity by MTP (also used for metabolites in Test Example 8); type: biochemical
T1 construct: from tissue; host or cells: bovine liver
T1 sequence (P55156 12-887): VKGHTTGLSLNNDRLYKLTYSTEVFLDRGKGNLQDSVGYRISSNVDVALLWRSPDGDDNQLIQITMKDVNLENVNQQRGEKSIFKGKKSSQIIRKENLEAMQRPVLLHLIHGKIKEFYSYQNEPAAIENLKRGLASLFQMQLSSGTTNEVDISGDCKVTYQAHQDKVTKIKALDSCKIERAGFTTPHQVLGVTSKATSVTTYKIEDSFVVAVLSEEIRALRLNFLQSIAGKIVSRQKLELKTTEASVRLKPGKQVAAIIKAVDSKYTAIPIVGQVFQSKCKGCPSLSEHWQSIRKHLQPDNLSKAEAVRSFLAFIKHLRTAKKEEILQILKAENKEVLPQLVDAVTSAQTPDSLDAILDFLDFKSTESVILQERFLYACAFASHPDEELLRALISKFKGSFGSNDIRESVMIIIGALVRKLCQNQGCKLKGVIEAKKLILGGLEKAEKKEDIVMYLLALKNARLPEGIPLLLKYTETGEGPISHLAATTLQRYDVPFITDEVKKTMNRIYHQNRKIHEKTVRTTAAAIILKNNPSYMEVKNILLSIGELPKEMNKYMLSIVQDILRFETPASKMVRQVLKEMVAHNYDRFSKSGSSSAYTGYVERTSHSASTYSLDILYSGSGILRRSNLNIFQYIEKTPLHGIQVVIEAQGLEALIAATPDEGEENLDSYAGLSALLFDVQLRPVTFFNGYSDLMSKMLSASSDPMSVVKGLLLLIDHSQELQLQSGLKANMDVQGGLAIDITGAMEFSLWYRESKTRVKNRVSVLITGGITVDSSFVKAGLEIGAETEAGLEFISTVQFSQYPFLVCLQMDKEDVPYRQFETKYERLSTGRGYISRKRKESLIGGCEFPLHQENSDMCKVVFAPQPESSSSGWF
T1 sequence (P05307 21-510 partner): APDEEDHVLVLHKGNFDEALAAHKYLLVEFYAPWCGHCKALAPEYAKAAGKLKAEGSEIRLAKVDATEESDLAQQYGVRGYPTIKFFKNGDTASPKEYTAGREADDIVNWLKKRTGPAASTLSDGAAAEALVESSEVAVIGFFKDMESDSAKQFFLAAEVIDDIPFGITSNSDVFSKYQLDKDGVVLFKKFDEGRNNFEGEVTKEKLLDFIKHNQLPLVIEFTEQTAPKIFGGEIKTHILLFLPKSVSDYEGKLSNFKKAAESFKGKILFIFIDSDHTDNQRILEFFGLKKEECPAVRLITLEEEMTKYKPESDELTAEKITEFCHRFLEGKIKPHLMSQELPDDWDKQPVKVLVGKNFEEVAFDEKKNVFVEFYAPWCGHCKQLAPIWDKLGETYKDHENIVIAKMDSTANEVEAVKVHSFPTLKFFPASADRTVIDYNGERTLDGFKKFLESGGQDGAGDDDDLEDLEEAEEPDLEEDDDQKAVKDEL
How it was run: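 Partially purified bovine liver MTP (DEAE chromatography) incubated 1 h at 37 °C, pH 7.4, with ^14C-triolein-labelled donor SUVs and unlabelled acceptor SUVs plus compound in DMSO. Acceptor radioactivity, blank-corrected, gave % inhibition versus DMSO; IC50 derived. Metabolites tested likewise.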

Japanese white rabbits = assay: Test Example 5: combination use test in cholesterol-loaded rabbit model (plasma cholesterol); type: in vivo; conditions: 1 mg/kg in high cholesterol diet, from grouping to the 4th day
Experimental: Japanese white rabbits (male, 19 weeks of age, JW, purchased from Kitayama Labes Co., Ltd.) were fed previously in such a way that they were fed a high cholesterol diet (0.3% cholesterol+3% peanut oil-added RC-4, Product of Oriental Yeast Co., Ltd.) of 70 g/day under limited feeding for one day. The rabbits thus fed were used as a cholesterol-loaded rabbit model, and the grouping of such model was carried out in such a way that there might be no variation in the amount of plasma cholesterol among each group (five rabbits/group). […] The rabbits were fed 70 g of each diet every morning. Blood was collected from auricular artery 6 hours after the feeding on the 4th day of the administration, and cholesterol level in plasma was assayed. In the table, increased amount of plasma cholesterol during from the time of grouping to the 4th day was shown.

[4] = 24 hours, apo B in supernatant by ELISA, read-out: Test Example 2 Inhibition of apo B secretion IC50
[5] = MTP-mediated 14C-triolein transfer between liposomes, 37° C., one hour, read-out: Test Example 1 MTP inhibition IC50

IC50 (HepG2 cells; [4]) [nM] | IC50 [3, 5] [nM] | Compound | inhibition in vivo at 3 mg/kg (Syrian hamsters [1]) [%] | other results
28 | 4 | CCNC(=O)C(CCOC(=O)Cc1cccc(NC(=O)c2ccccc2-c2ccc(C(F)(F)F)cc2)c1C)(C(=O)NCC)c1ccccc1 [Example 5-9] |  | inhibition in vivo at 100 mg/kg (Syrian hamsters [2]): 78%
2.3 |  | CCNC(=O)C(COC(=O)Cc1ccc(NC(=O)c2ccccc2-c2ccc(C(F)(F)F)cc2)c(C(=O)OCC)c1)(C(=O)NCC)c1ccccc1 [Example 9-10] | 54 | 
0.53 |  | CCNC(=O)C(COC(=O)Cc1ccc(NC(=O)c2ccccc2-c2ccc(C(F)(F)F)cc2)c(C(=O)OC)c1)(C(=O)NCC)c1ccccc1 [Example 9-13] | 70 | 
57 | 2 | CCOC(=O)C(CCOC(=O)c1ccc(NC(=O)c2ccccc2-c2ccc(C(F)(F)F)cc2)c(C)c1)(C(=O)OCC)c1ccccc1 [Example 6-15] |  | 
5.1 | 1.3 | CCCNC(=O)C(CCOC(=O)Cc1cccc(NC(=O)c2ccccc2-c2ccc(C(F)(F)F)cc2)c1C)(C(=O)NCCC)c1ccccc1 [Example 5-11] |  | inhibition in vivo at 100 mg/kg (Syrian hamsters [2]): 64%
237 | 16.2 | CCOC(=O)C(CCOC(=O)C1CCC(NC(=O)c2ccccc2-c2ccc(C(F)(F)F)cc2)CC1)(C(=O)OCC)c1ccccc1 (centres unmarked) [Example 7-5] |  | 
260 | 3.9 | CCOC(=O)C(CCOC(=O)Cc1ccc(C)c(NC(=O)c2ccccc2-c2ccc(C(F)(F)F)cc2)c1)(C(=O)OCC)c1ccccc1 [Example 5-6] |  | 

The remaining lines, values behind:

Compound | IC50 (HepG2 cells; [4]) [nM] | IC50 [3, 5] [nM] | inhibition in vivo at 3 mg/kg (Syrian hamsters [1]) [%] | other results
CCC(=O)N[C@H](COC(=O)Cc1ccc(NC(=O)c2ccccc2-c2ccc(C(F)(F)F)cc2)c(C(=O)N(C)C)c1)c1ccccc1 [Example 2-25] | 6.3 |  | 55 | 
CCC(C)(C)C(=O)O[C@H]1C[C@@H](C)C=C2C=C[C@H](C)[C@H](CC[C@@H]3C[C@@H](O)CC(=O)O3)[C@H]21 [Simvastatin, simvastatin, reference compound] |  |  |  | Increased amount of total cholesterol (Japanese white rabbits): 48.6 mg/dL
CCOC(=O)C(COC(=O)Cc1ccc(NC(=O)c2ccc(C)cc2-c2ccc(C(F)(F)F)cc2)c(C(=O)N(C)C)c1)(C(=O)OCC)c1ccccc1 [Example 2-48] | 0.36 |  | 87 | 
CCNC(=O)C(CCOC(=O)Cc1ccc(NC(=O)c2ccccc2-c2ccc(C(F)(F)F)cc2)c(OC(C)C)c1)(C(=O)NCC)c1ccccc1 [Example 3-11] | 0.36 |  | 75 | 
CC(C)CNC(=O)C(COC(=O)Cc1ccc(NC(=O)c2ccccc2-c2ccc(C(F)(F)F)cc2)cc1)(C(=O)NCC(C)C)c1ccccc1 [Example 1-66] | 9.3 | 16 |  | inhibition in vivo at 100 mg/kg (Syrian hamsters [2]): 52%
CCNC(=O)C(COC(=O)Cc1ccc(NC(=O)c2ccccc2-c2ccc(C(F)(F)F)cc2)c(C(=O)N(CC)CC)c1)(C(=O)NCC)c1ccccc1 [Example 2-8] | 0.99 |  | 89 | 
CCOC(=O)C(COC(=O)Cc1ccc(NC(=O)c2ccccc2-c2ccc(C(F)(F)F)cc2)c(C(=O)N(C)CC)c1)(C(=O)OCC)c1ccccc1 [Example 2-13] | 0.74 |  | 70 | 
CCNC(=O)C(COC(=O)Cc1ccc(NC(=O)c2ccccc2-c2ccc(C(F)(F)F)cc2)c(C(=O)N(C)CC)c1)(C(=O)NCC)c1ccccc1 [Example 2-14] | 1.2 |  | 80 | 
CCOC(=O)C(COC(=O)Cc1ccc(NC(=O)c2ccccc2-c2ccc(C(F)(F)F)cc2)c(C)c1)(C(=O)OCC)c1ccccc1 [Example 1-3, 2-(2-{3-Methyl-4-[(4′-trifluoromethylbiphenyl-2-carbonyl)amino]phenyl}acetoxymethyl)-2-phenylmalonic acid diethyl ester] | 5.75 | 4.7 |  | inhibition in vivo at 100 mg/kg (Syrian hamsters [2]): 65%
CCNC(=O)C(COC(=O)Cc1ccc(NC(=O)c2ccccc2-c2ccc(C(F)(F)F)cc2)c(C)c1)(C(=O)NCC)c1ccccc1 [Example 1-45] | 0.46 | 0.39 |  | inhibition in vivo at 100 mg/kg (Syrian hamsters [2]): 71%
CCNC(=O)C(CCOC(=O)Cc1ccc(NC(=O)c2ccccc2-c2ccc(C(F)(F)F)cc2)c(C(=O)N(C)CC)c1)(C(=O)NCC)c1ccccc1 [Example 2-15] | 0.53 |  | 81 | 
CCCNC(=O)C(COC(=O)Cc1ccc(NC(=O)c2ccccc2-c2ccc(C(F)(F)F)cc2)c(OC)c1)(C(=O)NCCC)c1ccccc1 [Example 3-5] | 2.2 |  |  | inhibition in vivo at 10 mg/kg (Syrian hamsters [1]; 10 mg/kg p.o.): 80%
CCCNC(=O)C(COC(=O)Cc1ccc(NC(=O)c2ccccc2-c2ccc(C(F)(F)F)cc2)c(C)c1)(C(=O)NCCC)c1ccccc1 [Example 1-72] | 2.7 | 0.44 |  | inhibition in vivo at 100 mg/kg (Syrian hamsters [2]): 54%
CCCN(C)C(=O)c1cc(CC(=O)OCC(C(=O)OCC)(C(=O)OCC)c2ccccc2)ccc1NC(=O)c1ccccc1-c1ccc(C(F)(F)F)cc1 [Example 2-18] | 0.69 |  | 58 | 
CCOC(=O)C(CO)(C(=O)OCC)c1ccccc1 |  |  |  | IC50 (HepG2 cells; main metabolites of the compounds (Test Example 8), read-out: Inhibition of apo B secretion IC50): > 10000 nM; IC50 ([3]; main metabolites of the compounds (Test Example 8), read-out: MTP inhibition IC50): > 1000 nM
O=C(Cc1ccc(NC(=O)c2ccccc2-c2ccc(C(F)(F)F)cc2)cc1)OCC(C(=O)NC1CCCCC1)(C(=O)NC1CCCCC1)c1ccccc1 [Example 1-23] | 63 | 54 |  | 
CCOC(=O)C(COC(=O)CN1CCC(NC(=O)c2ccccc2-c2ccc(C(F)(F)F)cc2)CC1)(C(=O)OCC)c1ccccc1 [Example 8, 2-Phenyl-2-(2-{4-[(4′-trifluoromethylbiphenyl-2-carbonyl)amino]piperidin-1-yl}acetoxymethyl)malonic acid diethyl ester] | 595 | 33 |  | 
